From patent publication US11767310B2, “Nicotinamide RIPK1 inhibitors” (AbbVie Inc., priority 2021, dated 2023)
Read-outs that look alike come from different tables or passages of the source.

Key:
Assay in all cases: Kinase binding screen
MEK2 = MEK2 (Homo sapiens (Human), UniProt P36507); settings: read-out: Percent Control at 100 nM Compound Concentration
BRAF(V600E) = BRAF(V600E) (Homo sapiens (Human), UniProt P15056, V600E); settings: read-out: Percent Control at 100 nM Compound Concentration
[1] = molecular target: RPS6KA4(Kin.Dom.1-N-terminal) (Homo sapiens (Human), UniProt O75676); settings: read-out: Percent Control at 100 nM Compound Concentration
NEK1 = NEK1 (Homo sapiens (Human), UniProt Q96PY6); settings: read-out: Percent Control at 100 nM Compound Concentration
PRKG2 = PRKG2 (Homo sapiens (Human), UniProt Q13237); settings: read-out: Percent Control at 100 nM Compound Concentration
IKK-beta = IKK-beta (Homo sapiens (Human), UniProt O14920); settings: read-out: Percent Control at 100 nM Compound Concentration
BIKE = BIKE (Homo sapiens (Human), UniProt Q9NSY1); settings: read-out: Percent Control at 100 nM Compound Concentration
CDK4-cyclinD1 = CDK4-cyclinD1 (Homo sapiens (Human), UniProt P11802); settings: read-out: Percent Control at 100 nM Compound Concentration
PIM3 = PIM3 (Homo sapiens (Human), UniProt Q86V86); settings: read-out: Percent Control at 100 nM Compound Concentration
FES = FES (Homo sapiens (Human), UniProt P07332); settings: read-out: Percent Control at 100 nM Compound Concentration
TRKC = TRKC (Homo sapiens (Human), UniProt Q16288); settings: read-out: Percent Control at 100 nM Compound Concentration
EGFR(L747-T751del,Sins) = EGFR(L747-T751del,Sins) (Homo sapiens (Human), UniProt P00533, DEL747-751/INS746S); settings: read-out: Percent Control at 100 nM Compound Concentration
MST1R = MST1R (Homo sapiens (Human), UniProt Q04912); settings: read-out: Percent Control at 100 nM Compound Concentration
PIK3CA(I800L) = PIK3CA(I800L) (Homo sapiens (Human), UniProt P42336, I800L); settings: read-out: Percent Control at 100 nM Compound Concentration
MAP4K4 = MAP4K4 (Homo sapiens (Human), UniProt O95819); settings: read-out: Percent Control at 100 nM Compound Concentration
[2] = molecular target: ABL1(H396P)-nonphosphorylated (Homo sapiens (Human), UniProt P00519, H396P); settings: read-out: Percent Control at 100 nM Compound Concentration
BRAF = BRAF (Homo sapiens (Human), UniProt P15056); settings: read-out: Percent Control at 100 nM Compound Concentration
PAK2 = PAK2 (Homo sapiens (Human), UniProt Q13177); settings: read-out: Percent Control at 100 nM Compound Concentration
LOK = LOK (Homo sapiens (Human), UniProt O94804); settings: read-out: Percent Control at 100 nM Compound Concentration
PYK2 = PYK2 (Homo sapiens (Human), UniProt Q14289); settings: read-out: Percent Control at 100 nM Compound Concentration
ADCK4 = ADCK4 (Homo sapiens (Human), UniProt Q96D53); settings: read-out: Percent Control at 100 nM Compound Concentration
ULK2 = ULK2 (Homo sapiens (Human), UniProt Q8IYT8); settings: read-out: Percent Control at 100 nM Compound Concentration
MST1 = MST1 (Homo sapiens (Human), UniProt Q13043); settings: read-out: Percent Control at 100 nM Compound Concentration
PIP5K2B = PIP5K2B (Homo sapiens (Human), UniProt P78356); settings: read-out: Percent Control at 100 nM Compound Concentration
LZK = LZK (Homo sapiens (Human), UniProt O43283); settings: read-out: Percent Control at 100 nM Compound Concentration
TGFBR1 = TGFBR1 (Homo sapiens (Human), UniProt P36897); settings: read-out: Percent Control at 100 nM Compound Concentration
QSK = QSK (Homo sapiens (Human), UniProt Q9Y2K2); settings: read-out: Percent Control at 100 nM Compound Concentration
ACVRL1 = ACVRL1 (Homo sapiens (Human), UniProt P37023); settings: read-out: Percent Control at 100 nM Compound Concentration
FLT3(ITD,D835V) = system: FLT3(ITD,D835V); set-up: species or system human

Sequence of NEK1 (Q96PY6 whole entry): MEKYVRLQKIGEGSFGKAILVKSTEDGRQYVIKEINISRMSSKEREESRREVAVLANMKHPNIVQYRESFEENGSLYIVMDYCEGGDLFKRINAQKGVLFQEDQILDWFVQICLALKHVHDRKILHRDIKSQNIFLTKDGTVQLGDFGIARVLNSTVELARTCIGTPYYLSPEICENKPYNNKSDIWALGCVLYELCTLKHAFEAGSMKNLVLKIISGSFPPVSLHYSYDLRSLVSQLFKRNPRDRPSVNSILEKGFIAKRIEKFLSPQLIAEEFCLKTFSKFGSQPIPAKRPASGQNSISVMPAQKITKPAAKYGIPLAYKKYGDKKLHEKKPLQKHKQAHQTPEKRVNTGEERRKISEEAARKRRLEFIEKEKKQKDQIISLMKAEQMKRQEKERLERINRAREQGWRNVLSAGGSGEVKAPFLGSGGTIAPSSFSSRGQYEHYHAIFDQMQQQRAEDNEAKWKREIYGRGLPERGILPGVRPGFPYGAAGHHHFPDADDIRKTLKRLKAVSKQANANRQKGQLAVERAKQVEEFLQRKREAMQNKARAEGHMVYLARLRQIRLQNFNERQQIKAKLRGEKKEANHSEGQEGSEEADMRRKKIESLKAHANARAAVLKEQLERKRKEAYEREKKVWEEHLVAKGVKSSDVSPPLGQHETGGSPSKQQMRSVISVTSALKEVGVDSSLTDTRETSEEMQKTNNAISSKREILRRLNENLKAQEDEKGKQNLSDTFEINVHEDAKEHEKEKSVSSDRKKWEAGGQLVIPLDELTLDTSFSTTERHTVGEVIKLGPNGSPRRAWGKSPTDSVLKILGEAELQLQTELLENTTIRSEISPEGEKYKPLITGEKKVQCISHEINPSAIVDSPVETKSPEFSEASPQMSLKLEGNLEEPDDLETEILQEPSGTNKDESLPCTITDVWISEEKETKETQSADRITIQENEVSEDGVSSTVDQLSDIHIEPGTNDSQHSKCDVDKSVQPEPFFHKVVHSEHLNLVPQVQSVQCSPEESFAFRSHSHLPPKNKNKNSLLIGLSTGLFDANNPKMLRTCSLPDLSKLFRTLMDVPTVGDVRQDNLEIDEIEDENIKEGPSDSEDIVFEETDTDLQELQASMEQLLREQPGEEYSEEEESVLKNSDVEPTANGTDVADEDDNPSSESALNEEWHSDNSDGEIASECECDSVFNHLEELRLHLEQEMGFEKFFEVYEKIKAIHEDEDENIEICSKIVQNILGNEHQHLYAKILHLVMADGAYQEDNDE
Sequence of ULK2 (Q8IYT8 whole entry): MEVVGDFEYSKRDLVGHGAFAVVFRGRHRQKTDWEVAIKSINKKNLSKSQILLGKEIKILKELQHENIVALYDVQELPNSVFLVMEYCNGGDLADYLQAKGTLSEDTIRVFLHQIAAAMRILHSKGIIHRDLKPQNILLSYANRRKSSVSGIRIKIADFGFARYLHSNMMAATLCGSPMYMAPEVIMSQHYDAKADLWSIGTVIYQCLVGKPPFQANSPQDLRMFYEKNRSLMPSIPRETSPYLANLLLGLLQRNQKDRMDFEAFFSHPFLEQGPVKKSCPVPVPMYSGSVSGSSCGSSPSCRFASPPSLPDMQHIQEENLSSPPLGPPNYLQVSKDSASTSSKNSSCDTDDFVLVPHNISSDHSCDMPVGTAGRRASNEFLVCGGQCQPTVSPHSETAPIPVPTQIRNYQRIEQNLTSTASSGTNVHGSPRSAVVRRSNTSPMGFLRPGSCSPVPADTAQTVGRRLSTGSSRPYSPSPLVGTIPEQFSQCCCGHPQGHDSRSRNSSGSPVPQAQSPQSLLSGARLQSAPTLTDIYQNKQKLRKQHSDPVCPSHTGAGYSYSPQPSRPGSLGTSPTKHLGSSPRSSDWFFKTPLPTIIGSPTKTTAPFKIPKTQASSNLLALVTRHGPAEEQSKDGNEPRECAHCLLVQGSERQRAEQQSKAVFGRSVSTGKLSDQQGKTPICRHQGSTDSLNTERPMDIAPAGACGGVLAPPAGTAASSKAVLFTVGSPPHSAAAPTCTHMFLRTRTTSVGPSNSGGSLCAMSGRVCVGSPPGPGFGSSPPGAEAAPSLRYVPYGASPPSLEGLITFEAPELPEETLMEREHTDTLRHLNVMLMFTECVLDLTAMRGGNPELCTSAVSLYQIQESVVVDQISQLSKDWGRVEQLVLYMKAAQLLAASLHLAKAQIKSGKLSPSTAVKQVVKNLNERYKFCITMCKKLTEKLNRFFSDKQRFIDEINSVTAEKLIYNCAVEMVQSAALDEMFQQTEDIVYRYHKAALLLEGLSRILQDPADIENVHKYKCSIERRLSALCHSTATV
Sequence of EGFR(L747-T751del,Sins) (P00533 other isoform, or with tags, fused parts or gaps del 1-668/ins S behind 746/del 747-751/del 1012-1210 limits assumed): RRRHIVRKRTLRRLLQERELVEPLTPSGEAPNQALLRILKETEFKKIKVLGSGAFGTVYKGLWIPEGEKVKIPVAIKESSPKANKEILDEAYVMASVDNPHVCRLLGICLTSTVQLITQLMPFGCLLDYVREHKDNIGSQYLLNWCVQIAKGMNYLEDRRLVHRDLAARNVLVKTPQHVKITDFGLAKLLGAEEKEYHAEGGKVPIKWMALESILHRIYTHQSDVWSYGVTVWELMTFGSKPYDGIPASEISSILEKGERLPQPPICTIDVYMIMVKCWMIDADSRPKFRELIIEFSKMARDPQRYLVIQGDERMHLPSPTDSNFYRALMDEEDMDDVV
Sequence of PRKG2 (Q13237 whole entry): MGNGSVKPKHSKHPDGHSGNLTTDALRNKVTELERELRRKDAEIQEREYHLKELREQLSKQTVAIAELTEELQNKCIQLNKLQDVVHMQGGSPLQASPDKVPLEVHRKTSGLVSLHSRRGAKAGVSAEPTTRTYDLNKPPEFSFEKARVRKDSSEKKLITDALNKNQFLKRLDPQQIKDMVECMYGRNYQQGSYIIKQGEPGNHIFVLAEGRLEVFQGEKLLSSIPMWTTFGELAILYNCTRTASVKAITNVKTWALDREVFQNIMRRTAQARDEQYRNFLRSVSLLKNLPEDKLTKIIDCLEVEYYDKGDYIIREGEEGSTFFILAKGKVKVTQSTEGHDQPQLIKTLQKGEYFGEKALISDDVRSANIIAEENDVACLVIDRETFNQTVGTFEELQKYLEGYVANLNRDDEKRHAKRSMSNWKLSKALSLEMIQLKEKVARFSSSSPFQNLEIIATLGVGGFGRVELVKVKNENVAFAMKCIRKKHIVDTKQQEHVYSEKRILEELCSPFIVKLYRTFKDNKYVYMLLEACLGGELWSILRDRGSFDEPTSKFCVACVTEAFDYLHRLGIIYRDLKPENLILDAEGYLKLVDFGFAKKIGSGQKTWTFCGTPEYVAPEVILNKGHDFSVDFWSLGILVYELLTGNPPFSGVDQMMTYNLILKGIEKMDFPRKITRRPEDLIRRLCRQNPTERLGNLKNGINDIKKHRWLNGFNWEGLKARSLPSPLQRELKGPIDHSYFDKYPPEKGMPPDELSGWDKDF
Sequence of IKK-beta (O14920 whole entry): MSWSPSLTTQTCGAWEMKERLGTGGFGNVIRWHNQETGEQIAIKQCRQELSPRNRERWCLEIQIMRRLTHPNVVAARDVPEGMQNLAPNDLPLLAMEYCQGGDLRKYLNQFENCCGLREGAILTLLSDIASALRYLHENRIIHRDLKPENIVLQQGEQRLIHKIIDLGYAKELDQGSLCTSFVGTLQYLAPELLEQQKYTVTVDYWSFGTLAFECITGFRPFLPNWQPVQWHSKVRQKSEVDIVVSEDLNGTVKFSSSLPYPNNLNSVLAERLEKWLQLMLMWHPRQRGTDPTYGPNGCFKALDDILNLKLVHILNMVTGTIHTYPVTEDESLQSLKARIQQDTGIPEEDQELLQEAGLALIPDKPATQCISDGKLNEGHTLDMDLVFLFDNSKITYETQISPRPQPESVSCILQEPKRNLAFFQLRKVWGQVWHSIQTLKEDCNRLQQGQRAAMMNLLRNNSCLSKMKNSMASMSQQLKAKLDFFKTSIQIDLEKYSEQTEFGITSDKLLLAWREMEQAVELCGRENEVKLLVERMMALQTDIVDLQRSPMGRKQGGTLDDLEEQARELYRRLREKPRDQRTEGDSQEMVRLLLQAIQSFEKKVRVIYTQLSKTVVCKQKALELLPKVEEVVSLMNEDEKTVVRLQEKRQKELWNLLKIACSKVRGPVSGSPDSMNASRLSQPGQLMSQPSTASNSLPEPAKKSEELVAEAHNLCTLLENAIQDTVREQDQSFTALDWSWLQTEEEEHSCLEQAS
Sequence of TGFBR1 (P36897 34-503): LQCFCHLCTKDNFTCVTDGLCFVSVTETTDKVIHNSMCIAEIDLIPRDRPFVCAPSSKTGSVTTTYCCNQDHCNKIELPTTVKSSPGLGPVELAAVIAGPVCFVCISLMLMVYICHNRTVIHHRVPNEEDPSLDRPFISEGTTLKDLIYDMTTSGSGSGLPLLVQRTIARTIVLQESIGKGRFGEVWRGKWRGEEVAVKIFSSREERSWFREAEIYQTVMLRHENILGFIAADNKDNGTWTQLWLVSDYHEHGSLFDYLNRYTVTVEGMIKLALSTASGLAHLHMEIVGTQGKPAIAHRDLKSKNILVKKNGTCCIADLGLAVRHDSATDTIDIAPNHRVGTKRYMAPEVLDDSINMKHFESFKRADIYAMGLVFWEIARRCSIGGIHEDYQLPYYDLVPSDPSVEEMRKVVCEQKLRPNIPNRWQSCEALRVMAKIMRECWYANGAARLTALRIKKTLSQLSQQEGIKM

CN(C[C@@H](O)Cc1ccccc1)C(=O)c1cncc(C#Cc2cnn(C(F)F)c2)c1 [Example 2, (S)-5-((1-(difluoromethyl)-1H-pyrazol-4-yl)ethynyl)-N-(2-hydroxy-3-phenylpropyl)-N-methylnicotinamide]
99%: remaining activity at 0.1 µM (MEK2; MEK2) | remaining activity at 0.1 µM (LZK; LZK)
98%: remaining activity at 0.1 µM (MST1R; MST1R)
96%: remaining activity at 0.1 µM (IKK-beta; IKK-beta) | remaining activity at 0.1 µM (PIK3CA(I800L); PIK3CA(I800L))
97%: remaining activity at 0.1 µM (BRAF(V600E); BRAF(V600E)) | remaining activity at 0.1 µM ([1]; RPS6KA4(Kin.Dom.1-N-terminal)) | remaining activity at 0.1 µM (PAK2; PAK2)
88%: remaining activity at 0.1 µM ([2]; ABL1(H396P)-nonphosphorylated) | remaining activity at 0.1 µM (QSK; QSK)
100%: remaining activity at 0.1 µM (NEK1; NEK1) | remaining activity at 0.1 µM (PRKG2; PRKG2) | remaining activity at 0.1 µM (BIKE; BIKE) | remaining activity at 0.1 µM (CDK4-cyclinD1; CDK4-cyclinD1) | remaining activity at 0.1 µM (PIM3; PIM3) | remaining activity at 0.1 µM (FES; FES) | remaining activity at 0.1 µM (TRKC; TRKC) | remaining activity at 0.1 µM (EGFR(L747-T751del,Sins); EGFR(L747-T751del,Sins)) | remaining activity at 0.1 µM (BRAF; BRAF) | remaining activity at 0.1 µM (LOK; LOK) | remaining activity at 0.1 µM (PYK2; PYK2) | remaining activity at 0.1 µM (ADCK4; ADCK4) | remaining activity at 0.1 µM (ULK2; ULK2) | remaining activity at 0.1 µM (MST1; MST1) | remaining activity at 0.1 µM (PIP5K2B; PIP5K2B) | remaining activity at 0.1 µM (TGFBR1; TGFBR1) | remaining activity at 0.1 µM (ACVRL1; ACVRL1) | Percent Control at 100 nM Compound Concentration (FLT3(ITD,D835V))
92%: remaining activity at 0.1 µM (MAP4K4; MAP4K4)

CN(C[C@H](Cc1ccccc1)OP(=O)(O)O)C(=O)c1cncc(C#Cc2cnn(C(F)F)c2)c1 [Example 19, (S)-1-(5-((1-(difluoromethyl)-1H-pyrazol-4-yl)ethynyl)-N-methylnicotinamido)-3-phenylpropan-2-yl dihydrogen phosphate]
68%: remaining activity at 0.1 µM (TRKC)
92%: remaining activity at 0.1 µM (MST1R) | remaining activity at 0.1 µM (PAK2)
100%: remaining activity at 0.1 µM [1] | remaining activity at 0.1 µM (NEK1) | remaining activity at 0.1 µM (BIKE) | remaining activity at 0.1 µM (PIM3) | remaining activity at 0.1 µM (FES) | remaining activity at 0.1 µM (BRAF) | remaining activity at 0.1 µM (LOK) | remaining activity at 0.1 µM (PYK2) | remaining activity at 0.1 µM (ADCK4) | remaining activity at 0.1 µM (MST1) | remaining activity at 0.1 µM (TGFBR1) | remaining activity at 0.1 µM (ACVRL1) | Percent Control at 100 nM Compound Concentration (FLT3(ITD,D835V))
95%: remaining activity at 0.1 µM (MAP4K4) | remaining activity at 0.1 µM (PIP5K2B)
87%: remaining activity at 0.1 µM (PIK3CA(I800L))
79%: remaining activity at 0.1 µM (EGFR(L747-T751del,Sins))
94%: remaining activity at 0.1 µM (ULK2)
85%: remaining activity at 0.1 µM (QSK)
96%: remaining activity at 0.1 µM (IKK-beta) | remaining activity at 0.1 µM [2]
97%: remaining activity at 0.1 µM (BRAF(V600E)) | remaining activity at 0.1 µM (PRKG2) | remaining activity at 0.1 µM (CDK4-cyclinD1)
99%: remaining activity at 0.1 µM (LZK)
98%: remaining activity at 0.1 µM (MEK2)
